Assay results reported in ChEMBL document CHEMBL1201862, “PubChem BioAssay data set” (2004).
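Results reflect a 48-hour exposure of cells in 96-well plates to compound at five concentrations. GI50: concentration for 50% inhibition of growth.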 Active and inactive are the calls of the source. Cut-off read from the data, not from the text of the source: active = GI50 up to about 1.1 µM and inactive = higher.

How the values were obtained:
Assay in all cases: NCI tumour cell line growth inhibition, 48 h
HT-29 = system: HT-29
SF-268 = system: SF-268
M14 = system: M14
SN12C = system: SN12C
NCI-H23 = system: NCI-H23
SK-MEL-2 = system: SK-MEL-2
HL-60 = system: HL-60
SK-MEL-28 = system: SK-MEL-28
CCRF-CEM = system: CCRF-CEM
UACC-62 = system: UACC-62
HCT-116 = system: HCT-116
UACC-257 = system: UACC-257
RPMI-8226 = system: RPMI-8226
K562 = system: K562
TK-10 = system: TK-10
SK-OV-3 = system: SK-OV-3
SNB-75 = system: SNB-75
OVCAR-5 = system: OVCAR-5
Malme-3M = system: Malme-3M
SNB-19 = system: SNB-19

Structure (SMILES)	GI50 (HT-29)	GI50 (SF-268)	GI50 (M14)	GI50 (SN12C)	GI50 (NCI-H23)	GI50 (SK-MEL-2)	GI50 (HL-60)	GI50 (SK-MEL-28)	GI50 (CCRF-CEM)	GI50 (UACC-62)	GI50 (HCT-116)	GI50 (UACC-257)	GI50 (RPMI-8226)	GI50 (K562)	GI50 (TK-10)	GI50 (SK-OV-3)	GI50 (SNB-75)	GI50 (OVCAR-5)	GI50 (Malme-3M)	GI50 (SNB-19)
COc1cc(C=O)cc(/C=N/c2ccc(Br)cc2)c1O	17.7 µM (inactive)	1.66 µM (inactive)	1.66 µM (inactive)	4.13 µM (inactive)	17.7 µM (inactive)	2.78 µM (inactive)	2.11 µM (inactive)	6.71 µM (inactive)	7.59 µM (inactive)	0.347 µM (active)	6.79 µM (inactive)	5.75 µM (inactive)	3.33 µM (inactive)	0.555 µM (active)	32.4 µM (inactive)	2.17 µM (inactive)	23.8 µM (inactive)	24.5 µM (inactive)	4.04 µM (inactive)	12.7 µM (inactive)
Cc1cccc(C)c1NC(=O)CCc1nnc2s/c(=C\c3ccc(N(C)C)cc3)c(=O)n12	> 100 µM (inactive)	59.2 µM (inactive)	> 100 µM (inactive)	> 100 µM (inactive)	> 100 µM (inactive)	> 100 µM (inactive)	68.1 µM (inactive)	> 100 µM (inactive)	38.6 µM (inactive)	> 100 µM (inactive)	> 100 µM (inactive)	> 100 µM (inactive)	66.2 µM (inactive)	53.3 µM (inactive)	> 100 µM (inactive)	> 100 µM (inactive)	> 100 µM (inactive)	> 100 µM (inactive)	> 100 µM (inactive)	> 100 µM (inactive)
COC(=O)NNc1c([N+](=O)[O-])cnn(-c2ccccc2)c1=O	2.04 µM (inactive)	3.1 µM (inactive)	1.8 µM (inactive)	1.99 µM (inactive)	2.67 µM (inactive)	2.95 µM (inactive)	1.39 µM (inactive)	3.83 µM (inactive)	0.302 µM (active)	2.11 µM (inactive)	1.78 µM (inactive)	2.51 µM (inactive)	2.44 µM (inactive)	1.04 µM (active)	18.1 µM (inactive)	9.71 µM (inactive)	7.48 µM (inactive)	4.44 µM (inactive)	2.47 µM (inactive)	10.5 µM (inactive)
COc1cc(OC)c(OC)cc1/C=C\c1ccnc2ccccc12	0.522 µM (active)	0.838 µM (active)	0.574 µM (active)	0.622 µM (active)	0.832 µM (active)	0.308 µM (active)	0.344 µM (active)	0.782 µM (active)	1.4 µM (inactive)	0.541 µM (active)	0.574 µM (active)	4.88 µM (inactive)	0.577 µM (active)	0.282 µM (active)	2.17 µM (inactive)	0.465 µM (active)	0.335 µM (active)	7.23 µM (inactive)	0.7 µM (active)	1.01 µM (active)
CC(C)OP(=O)(OC(C)C)c1nc(-c2ccccc2)n(-c2ccc([N+](=O)[O-])cc2)n1	> 100 µM (inactive)	> 100 µM (inactive)	> 100 µM (inactive)	> 100 µM (inactive)	> 100 µM (inactive)	50.8 µM (inactive)	> 100 µM (inactive)	> 100 µM (inactive)	> 100 µM (inactive)	> 100 µM (inactive)	> 100 µM (inactive)	> 100 µM (inactive)	> 100 µM (inactive)	85.5 µM (inactive)	> 100 µM (inactive)	> 100 µM (inactive)	> 100 µM (inactive)	> 100 µM (inactive)	> 100 µM (inactive)	> 100 µM (inactive)
Cn1nc2ccc3nccc(N(CCO)CCO)c3c2n1	> 100 µM (inactive)	> 100 µM (inactive)	> 100 µM (inactive)	> 100 µM (inactive)	> 100 µM (inactive)	> 100 µM (inactive)	> 100 µM (inactive)	> 100 µM (inactive)	> 100 µM (inactive)	> 100 µM (inactive)	> 100 µM (inactive)	> 100 µM (inactive)	> 100 µM (inactive)	> 100 µM (inactive)	> 100 µM (inactive)	> 100 µM (inactive)	> 100 µM (inactive)	> 100 µM (inactive)	> 100 µM (inactive)	> 100 µM (inactive)
O=C1/C(=c2\c3ccccc3n3c(=O)c4ccccc4nc23)Nc2ccccc21 [CANDIDINE]	26.6 µM (inactive)	85.3 µM (inactive)	> 38.7 µM (inactive)	> 100 µM (inactive)	> 64.9 µM (inactive)	> 100 µM (inactive)	> 10 µM (inactive)	> 100 µM (inactive)	> 100 µM (inactive)	43.9 µM (inactive)	> 100 µM (inactive)	> 86.7 µM (inactive)	> 100 µM (inactive)	> 84.5 µM (inactive)	> 100 µM (inactive)	> 100 µM (inactive)	25.6 µM (inactive)	> 100 µM (inactive)	33 µM (inactive)	> 100 µM (inactive)
O=C(CCN1CCN2c3ccccc3CCC2C1)c1ccc(F)cc1 (stereo not given)	18.8 µM (inactive)	46.9 µM (inactive)	49.7 µM (inactive)	48.6 µM (inactive)	36.1 µM (inactive)	23 µM (inactive)	28.5 µM (inactive)	14.7 µM (inactive)	36.6 µM (inactive)	31 µM (inactive)	37.5 µM (inactive)	34.7 µM (inactive)	28.9 µM (inactive)	30.2 µM (inactive)	29.6 µM (inactive)	68.2 µM (inactive)	27.2 µM (inactive)	23.1 µM (inactive)	25.1 µM (inactive)	23.2 µM (inactive)
Cc1ccc(P(c2ccc(C)cc2)c2ccc(C)cc2)cc1	19.4 µM (inactive)	24.3 µM (inactive)	19.3 µM (inactive)	17 µM (inactive)	27.9 µM (inactive)	22.2 µM (inactive)	28.8 µM (inactive)	24.5 µM (inactive)	20.4 µM (inactive)	21.6 µM (inactive)	12.4 µM (inactive)	22.1 µM (inactive)	6.05 µM (inactive)	4.83 µM (inactive)	31 µM (inactive)	30.4 µM (inactive)	15.2 µM (inactive)	21.3 µM (inactive)	18.3 µM (inactive)	61.8 µM (inactive)
C/C(=N\NC(=O)c1ccncc1)c1ccc2ccccc2c1O	0.498 µM (active)	0.802 µM (active)	2.08 µM (inactive)	1.62 µM (inactive)	3.82 µM (inactive)	7.69 µM (inactive)	0.638 µM (active)	17.2 µM (inactive)	0.232 µM (active)	2.19 µM (inactive)	0.608 µM (active)	2.71 µM (inactive)	4.33 µM (inactive)	1.84 µM (inactive)	4.63 µM (inactive)	4.47 µM (inactive)	3.66 µM (inactive)	6.12 µM (inactive)	1.19 µM (inactive)	17.5 µM (inactive)
C=CCSc1nnc2cc(CN3CCCC3)c(-c3ccc(Cl)cc3)nn12	15 µM (inactive)	20.8 µM (inactive)	18.1 µM (inactive)	16.8 µM (inactive)	23.7 µM (inactive)	19.2 µM (inactive)	17.9 µM (inactive)	20 µM (inactive)	45.1 µM (inactive)	14.4 µM (inactive)	14.5 µM (inactive)	17.5 µM (inactive)	39.1 µM (inactive)	34.7 µM (inactive)	20.7 µM (inactive)	20.2 µM (inactive)	19.9 µM (inactive)	18.3 µM (inactive)	22.6 µM (inactive)	24.6 µM (inactive)
Cc1ccc(C(=O)N/N=C2/C(=O)c3c4ccccc4cc4cccc2c34)cc1	21.6 µM (inactive)	18.7 µM (inactive)	31.4 µM (inactive)	21.8 µM (inactive)	24.6 µM (inactive)	64 µM (inactive)	10.2 µM (inactive)	17.7 µM (inactive)	3.98 µM (inactive)	26.9 µM (inactive)	4.78 µM (inactive)	> 87.9 µM (inactive)	22 µM (inactive)	> 21.1 µM (inactive)	25.2 µM (inactive)	23.7 µM (inactive)	26.7 µM (inactive)	> 70 µM (inactive)	18.8 µM (inactive)	27.6 µM (inactive)
CC1NCCc2c1[nH]c1cc(O)ccc21 (stereo not given)	> 100 µM (inactive)	> 100 µM (inactive)	> 100 µM (inactive)	> 100 µM (inactive)	> 100 µM (inactive)	> 100 µM (inactive)	> 100 µM (inactive)	> 100 µM (inactive)	> 100 µM (inactive)	> 100 µM (inactive)	> 100 µM (inactive)	> 100 µM (inactive)	> 100 µM (inactive)	> 100 µM (inactive)	> 100 µM (inactive)	> 100 µM (inactive)	> 100 µM (inactive)	> 100 µM (inactive)	> 100 µM (inactive)	> 100 µM (inactive)
FC(F)(F)c1ccc2c(c1)N(CCCNCCN1CCOCC1)c1ccccc1S2	3.24 µM (inactive)	15.9 µM (inactive)	1.95 µM (inactive)	13.3 µM (inactive)	12.3 µM (inactive)	3.66 µM (inactive)	6.07 µM (inactive)	5.2 µM (inactive)	12.6 µM (inactive)	13.2 µM (inactive)	3.17 µM (inactive)	10.9 µM (inactive)	7.19 µM (inactive)	2.99 µM (inactive)	12.7 µM (inactive)	> 10 µM (inactive)	7.13 µM (inactive)	11.3 µM (inactive)	2.44 µM (inactive)	16.1 µM (inactive)
